# Measurements from patent publication US20070135485A1, “Novel mch receptor antagonists” (priority 2003, published 2007).
# Biological target: T1, human MCHR1 (Homo sapiens, UniProt Q99705)
# T1 construct: The full-length cDNA for human MCHR1 was cloned; expressed in transfected cells; host or cells: AV12 cells previously transfected with the promiscuous G protein G(alpha)15; membranes
# Experiment: competitive 125I-MCH binding assay with clone 43 membranes (SPA)
# Settings: 125I-MCH (100 pM) displacement, Ki from IC50 by Cheng-Prusoff, tested in duplicate
# Description: (§1) The full-length cDNA for human MCHR1 was cloned from a human adult brain cDNA library (Edge Biosystems, Cat. 38356) by standard polymerase chain reaction (PCR) methodology employing the following primers: sense, 5′-GCCACCATGGACCT GGAAGCCTCGCTGC-3′; anti-sense, 5′-[…]-3′. The PCR reaction was performed in a final volume of 50 μl containing 5 μl of a 10× stock solution of PCR buffer, 1 μl of 10 mM dNTP mixture (200 μM final), 2 μl of 50 mM Mg(SO4) (2 mM final), 0.5 μl of 20 μM solutions of each primer (0.2 μM final), 5 μl of template cDNA containing 0.5 ng DNA, 0.5 μl of Platinum Taq High Fidelity DNA polymerase (Gibco Life Technologies) and 36 μl of H2O. PCR amplification was performed on a Perkin Elmer 9600 thermocycler. After denaturation for 90 sec at 94° C., the amplification sequence consisting of 94° C. for 25 sec, 55° C. for 25 sec and 72° C. for 2 min was repeated 30 times, followed by a final elongation step at 72° C. for 10 min. The desired PCR product (1.1 Kb) was confirmed by agarose gel electrophoresis and the band was extracted from the gel by Geneclean (Bio101) following the manufacturer's instructions. Following extraction, the cDNA fragment was cloned into pCR2.1-TOPO plasmid (Invitrogen) to confirm the identity and sequence.
# (§2) In order to generate cell lines stably expressing MCHR1, the insert was then subcloned into the Xba I and Not I sites of pcDNA(+)-3.1-neomycin (Invitrogen). After purification by Qiagen Maxi-prep kit (QIAGEN, Inc.), the plasmid was transfected by Fugene 6 (Roche Applied Science) into AV12 cells that had been previously transfected with the promiscuous G protein G[…]15. The transfected cells were selected by G418 (800 μg/ml) for. 10-14 days and single colonies were isolated from culture plates. The G418-resistant colonies were further selected for MCHR1 expression by measuring MCH-stimulated Ca^2+ transients with a fluorometric imaging plate reader (FLIPR, Molecular Devices).
# Both the ^125I-MCH binding and functional GTPγ^35S binding assays employed membranes isolated from a clone designated as clone 43. Typically, cells from 20 confluent T225 flasks were processed by washing the monolayers in cold phosphate-buffered saline (PBS), scraping the cells into same and re-suspending the cell pellet in 35 ml of 250 mM Sucrose, 50 mM HEPES, pH 7.5, 1 mM MgCl2, 24 μg/ml DNase I, and protease inhibitors (1 Complete® tablet, per 50 ml of buffer prepared, Roche Diagnostics). After incubation on ice for 5 min, cells were disrupted with 20-25 strokes of a Teflon/Glass homogenizer attached to an overhead motorized stirrer, and the homogenate was centrifuged at 40,000 rpm in Beckman Type 70.1 Ti rotor. The pellets were re-suspended in 250 mM Sucrose, 50 mM HEPES, pH 7.5, 1.5 mM CaCl2, 1 mM MgSO4 and protease inhibitors by Teflon/Glass homogenization to achieve a protein concentration of ˜3-5 mg/ml (Pierce BCA assay with Bovine serum albumin as standard). Aliquots were stored at −70° C.
# Binding of compounds to MCHR1 was assessed in a competitive binding assay employing ^125I-MCH, compound and clone 43 membranes. Briefly, assays are carried out in 96-well Costar 3632 white opaque plates in a total volume of 200 μl containing 25 mM HEPES, pH 7.5, 10 mM CaCl2, 2 mg/ml bovine serum albumin, 0.5% dimethyl sulfoxide (DMSO), 4 μg of clone 43 membranes, 100 pM ^125I-MCH (NEN), 1.0 mg of wheat germ agglutinin scintillation proximity assay beads (WGA-SPA beads, Amersham) and a graded dose of test compound. Non-specific binding is assessed in the presence of 1 μM unlabeled MCH. Bound ^125I-MCH is determined by placing sealed plates in a Microbeta Trilux (Wallac) and counting after a 5 hr delay.
# IC50 values (defined as the concentration of test compound required to reduce specific binding of ^125I-MCH by 50%) are determined by fitting the concentration-response data to a 4-parameter model (max response, min response, Hill coefficient, IC50) using Excel. […]
# T1 sequence (Q99705 whole entry): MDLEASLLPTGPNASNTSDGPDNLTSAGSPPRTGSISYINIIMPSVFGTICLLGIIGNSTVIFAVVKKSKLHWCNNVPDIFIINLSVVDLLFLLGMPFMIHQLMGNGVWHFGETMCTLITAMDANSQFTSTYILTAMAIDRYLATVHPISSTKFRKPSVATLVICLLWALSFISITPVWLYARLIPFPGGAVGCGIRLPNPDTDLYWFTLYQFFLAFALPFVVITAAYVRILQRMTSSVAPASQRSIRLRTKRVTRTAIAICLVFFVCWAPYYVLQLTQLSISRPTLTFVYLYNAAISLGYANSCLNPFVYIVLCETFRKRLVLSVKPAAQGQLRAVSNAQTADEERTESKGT
row,Ki,Structure (SMILES)
1,1.07 µM,O=C1c2ccc(-c3nnc(CSCCOc4ccccc4)o3)cc2CN1CCN1CCCCC1
2,11.1 µM,CN(C)Cc1cn(C)c2ccc(-c3nnc(CSCCOc4ccccc4)o3)cc12
3,0.0073 µM,c1ccc(OCCSCc2nnc(-c3ccc4cc(CN5CCCC5)ccc4c3)o2)cc1
4,2 µM,O=C1c2cc(-c3nnc(CSCCOc4ccccc4)o3)ccc2CN1CCN1CCCCC1
5,0.682 µM,CN(C)Cc1c[nH]c2cc(-c3nnc(CSCCOc4ccccc4)o3)ccc12
6,0.153 µM,CN(C)Cc1cc2cc(-c3nnc(CSCCOc4ccccc4)o3)ccc2o1 [drawing 52]
7,0.0082 µM,CN(C)Cc1ccc2cc(-c3nnc(CSCCOc4ccccc4)o3)ccc2c1 [drawing 44]
8,0.0176 µM,c1ccc(OCCSCc2nnc(-c3ccc4cc(CN5CCCCC5)ccc4c3)o2)cc1 [drawing 47]
9,0.19 µM,CN(C)Cc1cc2cc(-c3nnc(CSCCOc4ccccc4)o3)ccc2[nH]1
10,0.372 µM,CN(C)Cc1cc2ccc(-c3nnc(CSCCOc4ccccc4)o3)cc2o1 [drawing 39]
11,0.0346 µM,CN(C)Cc1cc2ccc(-c3nnc(CSCCOc4ccccc4)o3)cc2[nH]1 [drawing 54]
12,0.235 µM,CN(C)Cc1cc2cc(-c3nnc(CSCCOc4ccccc4)o3)ccc2o1 [drawing 50]
13,0.383 µM,CN(C)Cc1cc2ccc(-c3nnc(CSCCOc4ccccc4)o3)cc2o1 [drawing 41]

# Biological target: T1, human MCHR1
# Experiment: inhibition of MCH-stimulated GTPγ35S binding to clone 43 membranes (functional antagonism)
# Format: biochemical
# Settings: 40 nM MCH-stimulated GTPγ35S binding, Kb from IC50 by modified Cheng-Prusoff (Leff and Dougal), tested in duplicate
# Description: as §1
# as §2, with “Devices). […]” for “Devices).”
# Functional antagonism of MCH activity is assessed by measuring the ability of test compound to inhibit MCH-stimulated binding of GTPγ^35S to clone 43 membranes. […]
row,Kb,Structure (SMILES)
1,0.007 µM,c1ccc(OCCSCc2nnc(-c3ccc4cc(CN5CCCC5)ccc4c3)o2)cc1
2,0.0118 µM,CN(C)Cc1ccc2cc(-c3nnc(CSCCOc4ccccc4)o3)ccc2c1 [drawing 44]
3,0.0584 µM,c1ccc(OCCSCc2nnc(-c3ccc4cc(CN5CCCCC5)ccc4c3)o2)cc1 [drawing 47]

# Tested on: not given
# Experiment: not given
# Settings: not given
row,melting point,Structure (SMILES)
1,151 to 154 °C,"CN(C)Cc1cn(C)c2ccc(-c3nnc(CSCCOc4ccccc4)o3)cc12.O=C(O)C(=O)O [Example 8, dimethyl-{1-methyl-5-[5-(2-phenoxy-ethylsulfanylmethyl) -[1,3,4]oxadiazol-2-yl]-1H-indol-3-ylmethyl}-amine oxalate]"
2,159 to 163 °C,"CN(C)Cc1c[nH]c2ccc(-c3nnc(CSCCOc4ccccc4)o3)cc12.O=C(O)C(=O)O [Example 6, dimethyl-{5-[5-(2-phenoxy-ethylsulfanylmethyl)-[1,3,4]oxadiazol-2-yl]-1H-indol-3-ylmethyl}-amine oxalate]"
3,93 to 94 °C,"c1ccc(OCCSCc2nnc(-c3ccc4cc(CN5CCCCC5)ccc4c3)o2)cc1 [Example 13, 1 -{6-[5-(2-phenoxy-ethylsulfanylmethyl)-[1,3,4]oxadiazol-2-yl]-naphthalen-2-ylmethyl}-piperidine]"
4,147 to 150 °C,"CN(C)Cc1cc2cc(-c3nnc(CSCCOc4ccccc4)o3)ccc2[nH]1.O=C(O)C(=O)O [Example 3, dimethyl-{5-[5-(2-phenoxy-ethylsulfanylmethyl)-[1,3,4]oxadiazol-2-yl]-1H-indol-2-ylmethyl}-amine oxalate]"
5,95 to 96 °C,"CN(C)Cc1ccc2cc(-c3nnc(CSCCOc4ccccc4)o3)ccc2c1 [Example 11, Dimethyl-{6-[5-(2-phenoxy-ethylsulfanylmethyl)-[1,3,4]oxadiazol-2-yl]-naphthalen-2-ylmethyl}-amine]"
6,128 to 130 °C,"CN(C)Cc1cc2ccc(-c3nnc(CSCCOc4ccccc4)o3)cc2[nH]1 [Example 4, dimethyl-{6-[5-(2-phenoxy-ethylsulfanylmethyl)-[1,3,4]oxadiazol-2-yl]-1H-indol-2-ylmethyl}-amine]"
7,127 to 129 °C,"CN(C)Cc1c[nH]c2cc(-c3nnc(CSCCOc4ccccc4)o3)ccc12.O=C(O)/C=C\C(=O)O [Example 7, Dimethyl-{6-[5-(2-phenoxy-ethylsulfanylmethyl)-[1,3,4]oxadiazol-2-yl]-1H-indol-3-ylmethyl}-amine maleate]"
8,125.5 to 129 °C,"CN(C)Cc1cc2ccc(-c3nnc(CSCCOc4ccccc4)o3)cc2n1C.O=C(O)C(=O)O [Example 5, dimethyl-{1-methyl-6-[5-(2-phenoxy-ethylsulfanylmethyl)-[1,3,4]oxadiazol-2-yl]-1H-indol-2-ylmethyl}-amine oxalate]"
9,133 to 135 °C,"O=C(O)/C=C\C(=O)O.c1ccc(OCCSCc2nnc(-c3ccc4cc(CN5CCCC5)ccc4c3)o2)cc1 [Example 12, 2-(2-Phenoxy-ethylsulfanylmethyl)-5-(6-pyrrolidin-1-ylmethyl-naphthalen-2-yl)-[1,3,4]oxadiazole maleate]"
